Experimental data published in the supplement of paper PMC13207355.
± gives the standard deviation of the averaged measurements.

How the values were obtained:
Conditions in all cases: exposure time: 72 h
[1] = system: E13 (patient-derived glioblastoma stem cells of classical subtype); assay: surviving fraction (nuclei count normalised to DMSO); higher = more cells surviving (less toxic)
[2] = system: E21 (patient-derived glioblastoma stem cells of mesenchymal subtype); assay: as above
[3] = system: E28 (patient-derived glioblastoma stem cells of classical subtype); assay: as above
[4] = system: E34 (patient-derived glioblastoma stem cells of proneural subtype); assay: as above
[5] = system: E57 (patient-derived glioblastoma stem cells of mesenchymal subtype); assay: as above
[6] = system: FT3469 (normal neural stem cell line); assay: as above
[7] = system: E13; assay: phenotypic distance (Euclidean, principal components) from DMSO controls (arbitrary units); higher = stronger morphological change
[8] = system: E21; assay: as above
[9] = system: E28; assay: as above
[10] = system: E34; assay: as above
[11] = system: E57; assay: as above
[12] = system: FT3469; assay: as above
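Throughout, for phenotypic distance (Euclidean, principal components) from DMSO controls: cell Painting imaging in 384-well plates, CellProfiler features reduced to at least 20 principal components, Euclidean distance versus same-plate DMSO vehicle wells (0.1% v/v), median over six images per well.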
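Throughout, for surviving fraction (nuclei count normalised to DMSO): nuclei counted by high-content imaging of Hoechst-stained cells in laminin-coated 384-well plates, relative to 0.1% DMSO vehicle wells, with staurosporine as cell-death control.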

C[C@H](NC(=O)[C@@H](O)c1cc(F)cc(F)c1)C(=O)N[C@@H]1C(=O)N(C)c2ccccc2-c2ccccc21
Conditions	phenotypic distance	surviving fraction
[1], 4.1 nM	–	1.02 ± 0.15
[1], 12.3 nM	–	1.075 ± 0.0081
[1], 37 nM	–	1.02 ± 0.065
[1], 111.1 nM	–	1.03 ± 0.024
[1], 333.3 nM	–	1.08 ± 0.081
[1], 1000 nM	–	1.07 ± 0.046
[1], 3000 nM	–	0.995 ± 0.058
[2], 4.1 nM	–	0.89 ± 0.018
[2], 12.3 nM	–	0.9941 ± 0.0084
[2], 37 nM	–	0.938 ± 0.015
[2], 111.1 nM	–	0.902 ± 0.039
[2], 333.3 nM	–	0.872 ± 0.072
[2], 1000 nM	–	0.883 ± 0.036
[2], 3000 nM	–	0.898 ± 0.035
[3], 4.1 nM	–	0.852 ± 0.073
[3], 12.3 nM	–	0.866 ± 0.055
[3], 37 nM	–	0.942 ± 0.074
[3], 111.1 nM	–	0.918 ± 0.13
[3], 333.3 nM	–	0.925 ± 0.024
[3], 1000 nM	–	0.835 ± 0.086
[3], 3000 nM	–	0.891 ± 0.0093
[4], 4.1 nM	–	0.841 ± 0.3
[4], 12.3 nM	–	0.811 ± 0.045
[4], 37 nM	–	0.801 ± 0.099
[4], 111.1 nM	–	0.907 ± 0.25
[4], 333.3 nM	–	0.862 ± 0.14
[4], 1000 nM	–	0.775 ± 0.11
[4], 3000 nM	–	0.875 ± 0.1
[5], 4.1 nM	–	0.906 ± 0.036
[5], 12.3 nM	–	0.947 ± 0.018
[5], 37 nM	–	0.939 ± 0.027
[5], 111.1 nM	–	0.922 ± 0.042
[5], 333.3 nM	–	0.9779 ± 0.0074
[5], 1000 nM	–	0.943 ± 0.089
[5], 3000 nM	–	0.931 ± 0.12
[6], 4.1 nM	–	0.89 ± 0.062
[6], 12.3 nM	–	0.882 ± 0.071
[6], 37 nM	–	0.89 ± 0.049
[6], 111.1 nM	–	0.906 ± 0.032
[6], 333.3 nM	–	0.896 ± 0.084
[6], 1000 nM	–	0.875 ± 0.048
[6], 3000 nM	–	0.828 ± 0.041
[7], 4.1 nM	0.77 ± 0.23	–
[7], 12.3 nM	0.711 ± 0.02	–
[7], 37 nM	0.622 ± 0.052	–
[7], 111.1 nM	0.7795 ± 0.0029	–
[7], 333.3 nM	0.785 ± 0.014	–
[7], 1000 nM	0.723 ± 0.061	–
[7], 3000 nM	0.862 ± 0.29	–
[8], 4.1 nM	0.769 ± 0.025	–
[8], 12.3 nM	2.05 ± 0.56	–
[8], 37 nM	1.5 ± 0.98	–
[8], 111.1 nM	0.896 ± 0.046	–
[8], 333.3 nM	3.99 ± 4.1	–
[8], 1000 nM	1.02 ± 0.12	–
[8], 3000 nM	1.01 ± 0.22	–
[9], 4.1 nM	0.845 ± 0.08	–
[9], 12.3 nM	0.88 ± 0.22	–
[9], 37 nM	0.919 ± 0.12	–
[9], 111.1 nM	0.756 ± 0.19	–
[9], 333.3 nM	0.96 ± 0.036	–
[9], 1000 nM	1.03 ± 0.061	–
[9], 3000 nM	1.13 ± 0.34	–
[10], 4.1 nM	1.26 ± 0.65	–
[10], 12.3 nM	0.926 ± 0.098	–
[10], 37 nM	1.15 ± 0.07	–
[10], 111.1 nM	1.04 ± 0.25	–
[10], 333.3 nM	1.01 ± 0.31	–
[10], 1000 nM	1.24 ± 0.14	–
[10], 3000 nM	1.49 ± 0.21	–
[11], 4.1 nM	1.25 ± 0.31	–
[11], 12.3 nM	1.21 ± 0.19	–
[11], 37 nM	1.87 ± 1.2	–
[11], 111.1 nM	1.2 ± 0.015	–
[11], 333.3 nM	1.284 ± 0.0023	–
[11], 1000 nM	1.34 ± 0.35	–
[11], 3000 nM	1.43 ± 0.39	–
[12], 4.1 nM	1.01 ± 0.32	–
[12], 12.3 nM	0.677 ± 0.012	–
[12], 37 nM	0.997 ± 0.026	–
[12], 111.1 nM	0.721 ± 0.25	–
[12], 333.3 nM	1.08 ± 0.19	–
[12], 1000 nM	0.977 ± 0.058	–
[12], 3000 nM	0.991 ± 0.17	–

O=C(C1CC1)N1CC[C@@H](Cc2n[nH]c(=O)n2-c2ccc(-c3ccc4occc4c3)cc2)C1
Conditions	phenotypic distance	surviving fraction
[1], 4.1 nM	–	0.7243 ± 0.004
[1], 12.3 nM	–	0.771 ± 0.062
[1], 37 nM	–	0.726 ± 0.016
[1], 111.1 nM	–	0.671 ± 0.097
[1], 333.3 nM	–	0.641 ± 0.11
[1], 1000 nM	–	0.744 ± 0.052
[1], 3000 nM	–	0.66 ± 0.015
[2], 4.1 nM	–	0.835 ± 0.082
[2], 12.3 nM	–	0.849 ± 0.024
[2], 37 nM	–	0.804 ± 0.023
[2], 111.1 nM	–	0.777 ± 0.015
[2], 333.3 nM	–	0.749 ± 0.045
[2], 1000 nM	–	0.789 ± 0.013
[2], 3000 nM	–	0.732 ± 0.034
[3], 4.1 nM	–	0.827 ± 0.081
[3], 12.3 nM	–	0.792 ± 0.071
[3], 37 nM	–	0.771 ± 0.17
[3], 111.1 nM	–	0.752 ± 0.061
[3], 333.3 nM	–	0.786 ± 0.028
[3], 1000 nM	–	0.662 ± 0.059
[3], 3000 nM	–	0.704 ± 0.12
[4], 4.1 nM	–	0.853 ± 0.12
[4], 12.3 nM	–	0.872 ± 0.089
[4], 37 nM	–	0.906 ± 0.0092
[4], 111.1 nM	–	0.895 ± 0.082
[4], 333.3 nM	–	0.879 ± 0.17
[4], 1000 nM	–	0.864 ± 0.15
[4], 3000 nM	–	0.811 ± 0.14
[5], 4.1 nM	–	0.616 ± 0.019
[5], 12.3 nM	–	0.62 ± 0.043
[5], 37 nM	–	0.578 ± 0.037
[5], 111.1 nM	–	0.574 ± 0.036
[5], 333.3 nM	–	0.526 ± 0.014
[5], 1000 nM	–	0.53 ± 0.047
[5], 3000 nM	–	0.469 ± 0.066
[6], 4.1 nM	–	0.786 ± 0.1
[6], 12.3 nM	–	0.874 ± 0.011
[6], 37 nM	–	0.823 ± 0.1
[6], 111.1 nM	–	0.77 ± 0.027
[6], 333.3 nM	–	0.783 ± 0.013
[6], 1000 nM	–	0.769 ± 0.035
[6], 3000 nM	–	0.666 ± 0.019
[7], 4.1 nM	3.07 ± 0.076	–
[7], 12.3 nM	3.018 ± 0.0044	–
[7], 37 nM	3.95 ± 1.1	–
[7], 111.1 nM	3.29 ± 0.25	–
[7], 333.3 nM	3.49 ± 0.32	–
[7], 1000 nM	3.21 ± 0.064	–
[7], 3000 nM	2.99 ± 0.11	–
[8], 4.1 nM	2.24 ± 0.25	–
[8], 12.3 nM	2.337 ± 0.018	–
[8], 37 nM	2.41 ± 0.11	–
[8], 111.1 nM	2.65 ± 0.17	–
[8], 333.3 nM	2.64 ± 0.24	–
[8], 1000 nM	2.59 ± 0.029	–
[8], 3000 nM	2.62 ± 0.2	–
[9], 4.1 nM	2.86 ± 0.79	–
[9], 12.3 nM	3.11 ± 0.037	–
[9], 37 nM	3.37 ± 0.27	–
[9], 111.1 nM	3.59 ± 0.14	–
[9], 333.3 nM	3.55 ± 0.12	–
[9], 1000 nM	3.85 ± 0.29	–
[9], 3000 nM	3.76 ± 0.34	–
[10], 4.1 nM	1.76 ± 0.44	–
[10], 12.3 nM	2.04 ± 0.054	–
[10], 37 nM	2.26 ± 0.24	–
[10], 111.1 nM	2.59 ± 0.22	–
[10], 333.3 nM	2.265 ± 0.0027	–
[10], 1000 nM	2.464 ± 7.1e-05	–
[10], 3000 nM	2.5 ± 0.35	–
[11], 4.1 nM	3.85 ± 0.28	–
[11], 12.3 nM	3.99 ± 0.17	–
[11], 37 nM	4.34 ± 0.098	–
[11], 111.1 nM	4.35 ± 0.073	–
[11], 333.3 nM	4.55 ± 0.096	–
[11], 1000 nM	4.45 ± 0.051	–
[11], 3000 nM	4.65 ± 0.083	–
[12], 4.1 nM	2.28 ± 0.66	–
[12], 12.3 nM	2.24 ± 0.057	–
[12], 37 nM	2.6 ± 0.25	–
[12], 111.1 nM	3.07 ± 0.27	–
[12], 333.3 nM	2.8 ± 0.58	–
[12], 1000 nM	3.17 ± 0.27	–
[12], 3000 nM	3.52 ± 0.046	–
